From the supplement of paper PMC5908809

Key:
[1] = tested on: normal NK cells expanded with K562-aAPC; experiment: percent inhibition of viability; higher = more inhibition; conditions: 72 h, IL-2 2.5 ng/mL
Method: (§1)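 Drug sensitivity and resistance testing on K562-aAPC-expanded normal NK cells: 5 concentrations (10-fold steps over a 10,000-fold range), 72 h at 37 °C, viability by CellTiter-Glo normalised to DMSO and benzethonium chloride controls; DSS from the fitted curve.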

DERL-7 (IL-2 2.5 ng/mL) [2] = experiment: as above; conditions: 72 h
IMC-1 (IL-2 20 ng/mL) [3] = experiment: as above; conditions: 72 h
KAI3 (IL-2 2.5 ng/mL) [4] = experiment: as above; conditions: 72 h
KHYG-1 (IL-2 2.5 ng/mL) [5] = experiment: as above; conditions: 72 h
NK-92 (IL-2 2.5 ng/mL) [6] = experiment: as above; conditions: 72 h
NK-YS (IL-2 2.5 ng/mL) [7] = experiment: as above; conditions: 72 h
NKL (IL-2 2.5 ng/mL) [8] = experiment: as above; conditions: 72 h
SNK-6 (IL-2 2.5 ng/mL) [9] = experiment: as above; conditions: 72 h
YT (IL-2 2.5 ng/mL) [10] = experiment: as above; conditions: 72 h
[11] = tested on: normal primary NK cells, pool 1 (3 donors) (IL-2 2.5 ng/mL); experiment: as above; conditions: 72 h
[12] = tested on: normal primary NK cells, pool 1 (3 donors), resting (IL-2 0 ng/mL); experiment: as above; conditions: 72 h
[13] = tested on: normal primary NK cells, pool 2 (3 donors) (IL-2 2.5 ng/mL); experiment: as above; conditions: 72 h
[14] = tested on: normal primary NK cells, pool 3 (3 donors) (IL-2 2.5 ng/mL); experiment: as above; conditions: 72 h
[15] = tested on: normal NK cells expanded with K562-aAPC; experiment: drug sensitivity score (DSS) (DSS units); higher = more sensitive; extreme values may be limits of the assay; conditions: 72 h; IL-2 2.5 ng/mL
Method: as §1

DERL-7 (IL-2 2.5 ng/mL) [16] = experiment: as above; conditions: 72 h
IMC-1 (IL-2 20 ng/mL) [17] = experiment: as above; conditions: 72 h
KAI3 (IL-2 2.5 ng/mL) [18] = experiment: as above; conditions: 72 h
KHYG-1 (IL-2 2.5 ng/mL) [19] = experiment: as above; conditions: 72 h
NK-92 (IL-2 2.5 ng/mL) [20] = experiment: as above; conditions: 72 h
NK-YS (IL-2 2.5 ng/mL) [21] = experiment: as above; conditions: 72 h
NKL (IL-2 2.5 ng/mL) [22] = experiment: as above; conditions: 72 h
SNK-6 (IL-2 2.5 ng/mL) [23] = experiment: as above; conditions: 72 h
YT (IL-2 2.5 ng/mL) [24] = experiment: as above; conditions: 72 h
[25] = tested on: normal primary NK cells, pool 1 (3 donors) (IL-2 2.5 ng/mL); experiment: as above; conditions: 72 h
[26] = tested on: normal primary NK cells, pool 1 (3 donors), resting (IL-2 0 ng/mL); experiment: as above; conditions: 72 h
[27] = tested on: normal primary NK cells, pool 2 (3 donors) (IL-2 2.5 ng/mL); experiment: as above; conditions: 72 h
[28] = tested on: normal primary NK cells, pool 3 (3 donors) (IL-2 2.5 ng/mL); experiment: as above; conditions: 72 h

CN[C@@H]1C[C@H]2O[C@@](C)([C@@H]1OC)n1c3ccccc3c3c4c(c5c6ccccc6n2c5c31)C(=O)N[C@H]4O [UCN-01] (max concentration tested 10000 nM)
percent inhibition of viability [%]
Conditions | 1 nM | 10 nM | 100 nM | 1000 nM | 10000 nM
DERL-7 (IL-2 2.5 ng/mL) [2] | 8.29 | 22.9 | 82.2 | 101 | 101
IMC-1 (IL-2 20 ng/mL) [3] | -7.27 | -2.85 | -13.4 | 100 | 101
KAI3 (IL-2 2.5 ng/mL) [4] | 6.37 | 19.1 | 95.1 | 105 | 107
KHYG-1 (IL-2 2.5 ng/mL) [5] | 4.96 | 7.2 | 103 | 110 | 108
NK-92 (IL-2 2.5 ng/mL) [6] | -0.38 | 4.42 | 89.2 | 107 | 109
NK-YS (IL-2 2.5 ng/mL) [7] | 2.38 | 1.74 | 83.6 | 96.9 | 105
NKL (IL-2 2.5 ng/mL) [8] | -2.69 | 2.69 | 78.1 | 90.6 | 106
SNK-6 (IL-2 2.5 ng/mL) [9] | -11 | 34 | 92.7 | 100 | 101
YT (IL-2 2.5 ng/mL) [10] | 4.61 | 17.4 | 28.1 | 93 | 108
[1] | 0.67 | 13.9 | 76.9 | 100 | 101
[11] | 4.79 | 0.37 | 51.1 | 95.7 | 99.2
[12] | -5.95 | 4.23 | 23.4 | 84.6 | 92.1
[13] | -7.23 | 6.32 | 58.8 | 95.4 | 99
[14] | -5.75 | 2.95 | 40.4 | 97.2 | 101

Conditions | drug sensitivity score
DERL-7 (IL-2 2.5 ng/mL) [16] | 30.4
IMC-1 (IL-2 20 ng/mL) [17] | 17.1
KAI3 (IL-2 2.5 ng/mL) [18] | 32.4
KHYG-1 (IL-2 2.5 ng/mL) [19] | 31.8
NK-92 (IL-2 2.5 ng/mL) [20] | 29.2
NK-YS (IL-2 2.5 ng/mL) [21] | 27.8
NKL (IL-2 2.5 ng/mL) [22] | 27.4
SNK-6 (IL-2 2.5 ng/mL) [23] | 34
YT (IL-2 2.5 ng/mL) [24] | 20.2
[15] | 28.5
[25] | 23.8
[26] | 18.3
[27] | 24.8
[28] | 22.5

Cc1cc(Nc2cc(N3CCN(C)CC3)nc(/C=C/c3ccccc3)n2)n[nH]1 [ENMD-2076] (max concentration tested 10000 nM)
percent inhibition of viability [%]
Conditions | 1 nM | 10 nM | 100 nM | 1000 nM | 10000 nM
DERL-7 (IL-2 2.5 ng/mL) [2] | -3.97 | 1.55 | 8.93 | 73.3 | 100
IMC-1 (IL-2 20 ng/mL) [3] | 5.76 | 6.97 | 6.68 | 69 | 99.3
KAI3 (IL-2 2.5 ng/mL) [4] | 11.4 | 13.8 | 24.2 | 81.2 | 103
KHYG-1 (IL-2 2.5 ng/mL) [5] | 3.13 | 4.35 | 5.27 | 79.3 | 103
NK-92 (IL-2 2.5 ng/mL) [6] | 11.8 | 8.87 | 7.47 | 52.2 | 100
NK-YS (IL-2 2.5 ng/mL) [7] | 4 | 7.48 | 10.6 | 76.2 | 84.6
NKL (IL-2 2.5 ng/mL) [8] | 2.47 | 5.63 | 17.7 | 61.2 | 96.1
SNK-6 (IL-2 2.5 ng/mL) [9] | 5.5 | 2.27 | -27.8 | 68.5 | 79.8
YT (IL-2 2.5 ng/mL) [10] | 5.28 | 5.36 | 3.17 | 31.5 | 101
[1] | 2.38 | -3.79 | 7 | 60.5 | 99.8
[11] | -3.71 | -10.8 | -1.53 | 25 | 93.9
[12] | -0.34 | -9.97 | -7.43 | 16.7 | 80.9
[13] | -1.71 | 3 | 0.94 | 31 | 89.3
[14] | -2.94 | -6.14 | -2.82 | 14.7 | 96.1

Conditions | drug sensitivity score
DERL-7 (IL-2 2.5 ng/mL) [16] | 15
IMC-1 (IL-2 20 ng/mL) [17] | 14.2
KAI3 (IL-2 2.5 ng/mL) [18] | 18.1
KHYG-1 (IL-2 2.5 ng/mL) [19] | 15.4
NK-92 (IL-2 2.5 ng/mL) [20] | 11.8
NK-YS (IL-2 2.5 ng/mL) [21] | 15.4
NKL (IL-2 2.5 ng/mL) [22] | 14
SNK-6 (IL-2 2.5 ng/mL) [23] | 12.2
YT (IL-2 2.5 ng/mL) [24] | 10.1
[15] | 12.9
[25] | 8.98
[26] | 7.17
[27] | 9.3
[28] | 7.76
